# From PMC10995199, “Architecture and regulation of filamentous human cystathionine beta-synthase” (Nature Communications, 2024)
# pEC50: −log10 of the molar value.
# Assays:
# CBS^Δ516–525 [1] = molecular target: T1, CBS^Δ516–525 (Homo sapiens, UniProt P35520, DEL516-525); assay: AzMC fluorescence H2S production; format: biochemical; conditions: read-out: Kact
# T1 construct: full-length with regulatory domain loop 516-525 deleted, E. coli Rosetta (DE3); dimer; no C-terminal His-tag
# T1 sequence (P35520 with tags, fused parts or gaps DEL516-525): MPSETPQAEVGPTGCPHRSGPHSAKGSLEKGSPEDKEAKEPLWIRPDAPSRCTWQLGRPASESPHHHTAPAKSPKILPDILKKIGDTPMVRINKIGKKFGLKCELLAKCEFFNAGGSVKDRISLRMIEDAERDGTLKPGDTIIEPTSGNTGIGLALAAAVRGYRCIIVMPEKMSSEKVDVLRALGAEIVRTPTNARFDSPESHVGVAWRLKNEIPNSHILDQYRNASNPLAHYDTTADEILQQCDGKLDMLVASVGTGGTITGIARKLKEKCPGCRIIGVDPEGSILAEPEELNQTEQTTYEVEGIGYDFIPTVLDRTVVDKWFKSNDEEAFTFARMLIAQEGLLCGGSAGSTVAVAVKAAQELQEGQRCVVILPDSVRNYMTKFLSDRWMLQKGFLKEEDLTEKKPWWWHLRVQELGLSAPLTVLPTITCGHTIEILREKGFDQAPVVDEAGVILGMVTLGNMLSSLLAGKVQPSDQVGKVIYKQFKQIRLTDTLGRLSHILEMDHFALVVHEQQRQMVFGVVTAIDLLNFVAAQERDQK
# CBS^Δ516–525 [2] = molecular target: T1, CBS^Δ516–525; assay: ITC; format: binding; conditions: 25 °C, 20 mM HEPES pH 7.4; two-site fit
smiles,measurement,setting,value
C[S+](CC[C@H](N)C(=O)O)C[C@H]1O[C@@H](n2cnc3c(N)ncnc32)[C@H](O)[C@@H]1O (stereo partly drawn) [S-adenosyl-L-methionine],pEC50,CBS^Δ516–525 [1],4.44 to 4.59
same,Kd,CBS^Δ516–525 [2],"also presented two events, though this construct is dimeric"
